The structures appear in SMILES notation.

In the case of `CC1(C)[C@H](C=C(Cl)Cl)[C@H]1C(=O)OCc1c(F)c(F)cc(F)c1F`, the log10 vapour pressure (mmHg) was -5.52 and the melting point (usually the temperature of the solid-liquid transition) is 32 °C.
For the molecule `CC1CCOC1` (stereo not drawn), the boiling point (usually the temperature at which the vapour pressure of the liquid equals the pressure above it) turned out to be 86.5 °C.
The molecule `C[C@]12CC[C@H]3C(=CCc4cc(O)ccc43)[C@@H]1CC[C@@H]2O` gave a melting point of 174 °C.
`CCC=C(C)C` yielded a boiling point of 67.3 °C, a log10 vapour pressure (mmHg) of 2.2 and a melting point of -135 °C.
Take `CC[Si](CC)(CC)CC`: the boiling point turned out to be 155 °C and the log10 vapour pressure (mmHg) worked out at 0.699.
`O=C(O)CCC(=O)c1ccccc1` displayed a melting point of 118 °C.
On to `Clc1ccc(-c2cc(Cl)c(Cl)c(Cl)c2Cl)cc1Cl`, for which the log10 vapour pressure (mmHg) is -5.79.
In the case of `C=CCOc1c(Br)cc(C(C)(C)c2cc(Br)c(OCC=C)c(Br)c2)cc1Br`, the melting point amounted to 119 °C.
`CCOC(OCC)C(Cl)Cl`: the boiling point is 184 °C.
Take `CCCOc1ccccc1OCC(O)CO` (stereo not drawn): the melting point came to 70 °C.
For `Cc1ccc(O)cc1C`, the ready biodegradability result is reported as “readily biodegradable”.
`N#Cc1ccc(C=O)cc1` showed a melting point of 100 °C.
For `CC(C)(c1ccc(O)cc1)c1ccc(O)cc1`, the melting point stood at 153 °C and the ready biodegradability result is on record as “not readily biodegradable”.
In the case of `[N-]=[N+]=NC(=O)c1ccccc1`, the melting point worked out at 32 °C.
With `Clc1nc2ccccc2s1`, the boiling point came out at 248 °C and the melting point was 24 °C.
Molecule `C/C=C/C=C/CCCCCCCO` had a log10 vapour pressure (mmHg) of -3.29 and a melting point of 32 °C.
Regarding `O=C(Cl)c1cccc(C(=O)Cl)c1`, the boiling point turned out to be 276 °C and the melting point came out at 43.5 °C.
In the case of `CCOP(=O)(OCC)SCCSCC`, the log10 Koc (L/kg) is 1.85.
The molecule `c1cc2c3c(ccc4c3c1CCC4)CCC2` registered a melting point of 133 °C.
As for `CC/C=C\C/C=C\C/C=C\CCCCCCCC(=O)O`, the log10 vapour pressure (mmHg) was -6.27, the melting point was -16.5 °C and the ready biodegradability result was “readily biodegradable”.
Turning to `Clc1cccc(Br)c1`, the boiling point came to 196 °C and the melting point was -21.5 °C.
Molecule `C=CC[C@H](C)O` came in with a boiling point of 116 °C.
Take `[N-]=[N+]=NCC(=O)N[C@H](CO)[C@H](O)c1ccc([N+](=O)[O-])cc1`: the melting point was found to be 107 °C.
The molecule `CCSCCO` gave a boiling point of 184 °C and a melting point of -100 °C.
In turn, `CCOO` gave a boiling point of 95 °C, a log10 Henry constant (atm·m³/mol) of -5.53 and a melting point of -100 °C.
With `CCOC(=O)C1(c2ccccc2)CCN(CCc2ccc(N)cc2)CC1`, the melting point was 83 °C.
With `Cc1cc(NC(N)=O)ccc1Br`, the log10 Koc (L/kg) was 2.37.
For `CCOP(=S)(OCC)Oc1ncn(-c2ccccc2)n1`, the log10 vapour pressure (mmHg) is -5.54.
As for `O=C1OC(=O)C(F)(F)C(F)(F)C1(F)F`, the boiling point was 72 °C.
`O=c1cc(CO)occ1O` had a melting point of 154 °C.
In the case of `COc1cc(Cl)c(Cl)cc1O`, the log10 vapour pressure (mmHg) is -2.35.
`CCC(=O)CC(C)=O`: the boiling point was 160 °C.
Consider `Nc1ccc(C(=O)O)cc1`, for which the log10 Koc (L/kg) is 2.5, the melting point turned out to be 188 °C and the ready biodegradability result was “readily biodegradable”.
Molecule `CCCOC/C(=N\c1ccc(Cl)cc1C(F)(F)F)n1ccnc1` came in with a log10 vapour pressure (mmHg) of -5.85 and a melting point of 63.5 °C.
For `Nc1ccc(S)cc1`, the melting point came to 46 °C.
In the case of `CCCCCOC(=O)CC`, the boiling point stood at 169 °C, the log10 vapour pressure (mmHg) is 0.556 and the melting point is -73.1 °C.
In turn, `CS(=O)(=O)F` yielded a boiling point of 124 °C and a log10 vapour pressure (mmHg) of 1.04.
As to `CCCCOC(=O)COC(=O)c1ccccc1C(=O)OCCCC`, the log10 Koc (L/kg) is 3.7 and the ready biodegradability entry was “readily biodegradable”.
On to `Nc1cc(C(=O)O)ccc1Cl`, for which the melting point stood at 214 °C.
`C=CCc1ccc(OC)cc1`: the boiling point is 216 °C.
Take `O=[N+]([O-])c1ccc2c(c1)CCN2`: the melting point came to 93 °C.
`Clc1cc(-c2cc(Cl)c(Cl)c(Cl)c2Cl)c(Cl)c(Cl)c1Cl` had a log10 Henry constant (atm·m³/mol) of -5 and a log10 Koc (L/kg) of 6.41.
For the molecule `COB(OC)OC`, the boiling point was 68 °C, the log10 vapour pressure (mmHg) was 2.13 and the melting point was -31.6 °C.
As to `CCCCCCCCCCCCCCCCCCOC(=O)CCSCCC(=O)OCCCCCCCCCCCCCCCCCC`, the melting point came out at 66 °C and the ready biodegradability result is on record as “readily biodegradable”.
Turning to `O=C1CCCC(=O)C1`, the melting point turned out to be 106 °C.
Regarding `C=C(CC)C(C)C`, the boiling point is 89 °C.
Regarding `O=C1CCc2ccccc2O1`, the boiling point was found to be 272 °C and the melting point was 25 °C.
For `CC(C)(C)C(=O)NNCc1ccccc1`, the melting point worked out at 68.5 °C.
Still for that read-out and setting: the same measure for `C=Cc1ccc(C)cc1C`: -64 °C.
Same read-out and setting: the same measure for `COc1cccc(OC)c1C(C)=O`: 69 °C.
Take `CC(C)=C1OC(=O)N(c2cc(OC3CCCC3)c(Cl)cc2F)C1=O`: the melting point stood at 104 °C.
Still for that read-out and setting: the same measure for `C[C@]12C[C@H](O)[C@H]3[C@@H](CCC4=CC(=O)CC[C@@]43C)[C@@H]1CC[C@@H]2C(=O)CO`: 181 °C.
In the case of `Cc1c(N=C=O)cccc1N=C=O`, the log10 vapour pressure (mmHg) is -1.68 and the melting point was determined as 18.3 °C.
`N#CCCCBr` registered a boiling point of 206 °C.
`O=C1CCC[C@@H]2[C@H]3CCCN4CCC[C@@H](CN12)[C@@H]34` (racemic) came in with a melting point of 76 °C.
Consider `CC(=O)c1c(C)c[nH]c1C`, for which the melting point stood at 138 °C.

For the origin of these results see the OPERA property sets (Mansouri et al. 2018).
